Laboratory results published in US10226467B2, “Compounds for the treatment of myotonic dystrophy” (UNIVERSITAT DE VALÈNCIA, priority 2014, dated 2019).

Experiments:
MBNL1 in DM1 myoblasts = assay: Quantification of Mbl expression or localization (anti-MBNL1 immunodetection); type: cell-based, human; conditions: FIG. 6, at 1 microM, one day, versus DMSO
Method: Immortalized transdifferentiated DM1 fibroblasts were seeded in a […] (8000 cell/per well) in standard media. To achieve the differentiation of the fibroblast to myoblasts, we induced MyoD expression by changing the standard media to differentiation media with Doxocycline and without serum. 24 h after induction, the compounds were added the cells at different concentrations, always maintaining the concentration of the solvent (DMSO) at 1% in the media. Every concentration of compound was tested in three different wells. 24 h after adding the compounds the cells were fixed with paraformaldehyde 4% in PBS and Mbl detection using monoclonal anti-MBNL1 antibody was performed counterstaining with Hoechst to detect the nuclei. Incell 200 plate reader confocal was used for detection and quantification of the parameters selected and the data was analyzed using Graphpad software for statistical comparison of results.

[1] = tested on: ribonuclear foci in DM1 fibroblasts; assay: Ribonuclear foci per cell (in situ hybridization of CUG repeat RNA); type: cell-based, human; conditions: FIG. 4, versus DMSO
From the text: Its reduction is typically used as evidence of desired activity against myotonic dystrophy in cell culture models because MBNL proteins are sequestered in ribonuclear foci. Since MBNL proteins are limiting in myotonic dystrophies an increase in free MBNLs is expected to be therapeutic. • Evidences from Human Myoblasts:
Cell model of the disease (provided by the D. Furling's laboratory, Institute of Myologie, Paris) consisted of normal and DM1 (1300 CTG repeats) immortalized (hTERT) skin fibroblasts expressing conditional MyoD. Fibroblast cells were grown in Dulbecco's Modified Eagle Medium (DMEM) with 4.5 g/L of glucose, 1% of penicillin and streptomycin (P/S) and 10% foetal bovine serum (FBS) (Sigma). Fibroblasts were transdifferentiated in myoblasts by inducing expression of MyoD. […]
In situ hybridization with CUG repeat RNA. […] Images were taken using a Leica DM2500 fluorescence microscope and foci were manually counted from at least 50 cells per compound.
DM1 fibroblasts were seeded in a […] (8000 cell/per well) in standard media one day before adding the compounds to the media. […] Incell 200 plate reader confocal was used for detection and quantification of the parameters selected and the data was analyzed using Graphpad software for statistical comparison of results.

[2] = tested on: 6-FAM-(CUG)23 probe (CUG repeats RNA); assay: Fluorescence polarization assay of binding to CUG repeat RNA; conditions: FIG. 2; increasing concentrations; compared to a control compound that does not bind CUG repeats
Method: This was assessed in fluorescence polarization spectroscopy experiments. In these tests, when polarized light excites a fluorophore conjugated to a small molecule, it undergoes rotational diffusion faster than the time required for light emission occurs, resulting in a random arrangement of the molecule in the fluorescence emission time (depolarization). However, the rotation of the molecule becomes slower depending on the viscosity of the medium or the molecular volume, increasing the polarization of the emitted light. Thus, by measuring changes in polarization of an RNA with 23 CUG repeats conjugated to the fluorophore carboxyfluorescein, FAM (CUG) 23, we can consider whether a candidate molecule binds to the RNA.
Fluorescent CUG RNA (carboxyfluorescein (6-FAM)-labeled) was incubated with increasing concentrations of example compounds. […]
Carboxyfluorescein-labeled CUG RNA (6-FAM-CUG23) at 6 nM was incubated with the compounds at different concentrations in binding buffer (50 mM Tris-HCl pH 7.0, 250 mM NaCl, 50 μM ZnCl2, 10% glycerol, 1 mM DTT) on ice for 20 min in the dark. Polarization was measured in an EnVision® Multilabel Reader using as excitation filter FP480 and as emission filter FP535.

[3] = tested on: 6-FAM-(CUG)23 probe (CUG repeats RNA); conditions: positive control, Warf et al. 2009; cited from earlier work

| SMILES | Mbl staining intensity in nuclei (MBNL1 in DM1 myoblasts) | further results |
| --- | --- | --- |
| Cn1c(=O)[nH]c2ncn(C)c2c1=O [Compound 6, 1,7-Dimethylxanthine] | increase significantly |  |
| CC(C)Cn1c(=O)n(C)c(=O)c2[nH]cnc21 [Compound 7, 3-Isobutyl-1-methylxanthine] | increase significantly |  |
| Cn1c(=O)[nH]c(=O)c2[nH]cnc21 [Compound 8, 3-Methylxanthine] | increase significantly |  |
| CCCn1c(=O)c2[nH]cnc2n(CC)c1=O [Compound 9, 3-Ethyl-1-propylxanthine] | increase significantly |  |
| Cn1c(=O)c2c(ncn2CCCCCCCn2cnc3c2c(=O)n(C)c(=O)n3C)n(C)c1=O [Theophylline-C7] |  | mean number of ribonuclear foci per cell [1]: significantly decreased |
| Cn1c(=O)c2c(ncn2CCCCCCCCCn2cnc3c2c(=O)n(C)c(=O)n3C)n(C)c1=O [Theophylline-C9] |  | mean number of ribonuclear foci per cell [1]: significantly decreased; binding to CUG repeats (polarization of 6-FAM-(CUG)23 probe relative to probe alone) [2]: very strong bond |
| N=C(N)c1ccc(OCCCCCOc2ccc(C(=N)N)cc2)cc1 [pentamidine] |  | binding to CUG repeats (previously shown) [3]: attached to the CUG repeats |
